Laboratory results as given in US20230312473A1, “PROCESS FOR THE PREPARATION OF BIHETEROARYL COMPOUNDS AND CRYSTAL FORMS THEREOF” (Genentech, Inc., priority 2020, published 2023).
Like-named read-outs stand apart in the source and are kept apart here.

Test: Solubility of compound 1 in the solvent under evaluation at 22° C. and 65° C. (crystallization study)
Type: physicochemical
Experimental: Crystalline compound 1 was evaluated. Crystallization study procedures were done based on the solubility of compound 1 in the solvent under evaluation as follows.
The results are presented below in Table 10 where: * refers to compound 1 prepared as described above; and ** refers to compound 1 prepared as described above and further incubated at 100% relative humidity at 22° C. for 17 days.

Measured: solubility

Nc1ncc(-c2cc(N3C[C@@H]4C[C@H]3CO4)nc(N3CCC(F)(F)C3)n2)cc1OC(F)F [Compound 1, 5-(6-((1S,4S)-2-oxa-5-azabicyclo[2.2.1]heptan-5-yl)-2-(3,3-difluoropyrrolidin-1-yl)pyrimidin-4-yl)-3-(difluoromethoxy)pyridin-2-amine]
> 50 mg/mL: Acetonitrile, 65 °C, organic solvent or mixture, solvent: Acetonitrile, read-out: Solubility at 65° C. | Chloroform, 65 °C, organic solvent or mixture, solvent: Chloroform, read-out: Solubility at 65° C. | Dichloromethane, 65 °C, organic solvent or mixture, solvent: Dichloromethane, read-out: Solubility at 65° C. | Dimethyl carbonate, 65 °C, organic solvent or mixture, solvent: Dimethyl carbonate, read-out: Solubility at 65° C. | Dioxane, 22 °C, organic solvent or mixture, thermodynamic from solid, solvent: Dioxane, read-out: Solubility at 22° C. | Ethyl acetate, 65 °C, organic solvent or mixture, solvent: Ethyl acetate, read-out: Solubility at 65° C. | THF, 22 °C, organic solvent or mixture, thermodynamic from solid, solvent: THF, read-out: Solubility at 22° C. | acetone, 65 °C, organic solvent or mixture, solvent: Acetone, read-out: Solubility at 65° C. | nitromethane, 65 °C, organic solvent or mixture, thermodynamic from solid, solvent: Nitromethane, read-out: Solubility at 65° C.
> 100 mg/mL: DMF, 22 °C, organic solvent or mixture, thermodynamic from solid, solvent: DMF, read-out: Solubility at 22° C. | DMSO, 22 °C, organic solvent or mixture, thermodynamic from solid, solvent: DMSO, read-out: Solubility at 22° C.
< 50 mg/mL: Chloroform, 22 °C, organic solvent or mixture, thermodynamic from solid, solvent: Chloroform, read-out: Solubility at 22° C. | Dichloromethane, 22 °C, organic solvent or mixture, thermodynamic from solid, solvent: Dichloromethane, read-out: Solubility at 22° C. | Diisopropylamine, 22 °C, organic solvent or mixture, thermodynamic from solid, solvent: Diisopropylamine, read-out: Solubility at 22° C. | Diisopropylamine, 65 °C, organic solvent or mixture, solvent: Diisopropylamine, read-out: Solubility at 65° C. | Dimethyl carbonate, 22 °C, organic solvent or mixture, thermodynamic from solid, solvent: Dimethyl carbonate, read-out: Solubility at 22° C. | Ethyl acetate, 22 °C, organic solvent or mixture, thermodynamic from solid, solvent: Ethyl acetate, read-out: Solubility at 22° C. | Isopropyl acetate, 22 °C, organic solvent or mixture, thermodynamic from solid, solvent: Isopropyl acetate, read-out: Solubility at 22° C. | Isopropyl acetate, 65 °C, organic solvent or mixture, solvent: Isopropyl acetate, read-out: Solubility at 65° C. | MEK, 22 °C, organic solvent or mixture, thermodynamic from solid, solvent: MEK, read-out: Solubility at 22° C. | MEK, 65 °C, organic solvent or mixture, thermodynamic from solid, solvent: MEK, read-out: Solubility at 65° C. | MIBK, 22 °C, organic solvent or mixture, thermodynamic from solid, solvent: MIBK, read-out: Solubility at 22° C. | MIBK, 65 °C, organic solvent or mixture, thermodynamic from solid, solvent: MIBK, read-out: Solubility at 65° C. | MTBE, 22 °C, organic solvent or mixture, thermodynamic from solid, solvent: MTBE, read-out: Solubility at 22° C. | MTBE, 65 °C, organic solvent or mixture, thermodynamic from solid, solvent: MTBE, read-out: Solubility at 65° C. | Methanol, 22 °C, organic solvent or mixture, thermodynamic from solid, solvent: Methanol, read-out: Solubility at 22° C. | Methanol, 65 °C, organic solvent or mixture, thermodynamic from solid, solvent: Methanol, read-out: Solubility at 65° C. | Toluene, 22 °C, organic solvent or mixture, thermodynamic from solid, solvent: Toluene, read-out: Solubility at 22° C. | Toluene, 65 °C, organic solvent or mixture, thermodynamic from solid, solvent: Toluene, read-out: Solubility at 65° C. | acetone, 22 °C, organic solvent or mixture, thermodynamic from solid, solvent: Acetone, read-out: Solubility at 22° C. | butanol, 22 °C, organic solvent or mixture, thermodynamic from solid, solvent: Butanol, read-out: Solubility at 22° C. | butanol, 65 °C, organic solvent or mixture, solvent: Butanol, read-out: Solubility at 65° C. | ethanol, 22 °C, organic solvent or mixture, thermodynamic from solid, solvent: Ethanol, read-out: Solubility at 22° C. | ethanol, 65 °C, organic solvent or mixture, solvent: Ethanol, read-out: Solubility at 65° C. | i-butanol, 22 °C, organic solvent or mixture, thermodynamic from solid, solvent: i-Butanol, read-out: Solubility at 22° C. | i-butanol, 65 °C, organic solvent or mixture, thermodynamic from solid, solvent: i-Butanol, read-out: Solubility at 65° C. | isopropanol, 22 °C, organic solvent or mixture, thermodynamic from solid, solvent: Isopropanol, read-out: Solubility at 22° C. | isopropanol, 65 °C, organic solvent or mixture, solvent: Isopropanol, read-out: Solubility at 65° C. | n-Heptane, 22 °C, organic solvent or mixture, thermodynamic from solid, solvent: n-Heptane, read-out: Solubility at 22° C. | n-Heptane, 65 °C, organic solvent or mixture, thermodynamic from solid, solvent: n-Heptane, read-out: Solubility at 65° C. | nitromethane, 22 °C, organic solvent or mixture, thermodynamic from solid, solvent: Nitromethane, read-out: Solubility at 22° C. | propanol, 22 °C, organic solvent or mixture, thermodynamic from solid, solvent: Propanol, read-out: Solubility at 22° C. | propanol, 65 °C, organic solvent or mixture, thermodynamic from solid, solvent: Propanol, read-out: Solubility at 65° C. | s-butanol, 22 °C, organic solvent or mixture, thermodynamic from solid, solvent: s-butanol, read-out: Solubility at 22° C. | s-butanol, 65 °C, organic solvent or mixture, thermodynamic from solid, solvent: s-butanol, read-out: Solubility at 65° C. | water, 22 °C, water, thermodynamic from solid, solvent: Water, read-out: Solubility at 22° C. | water, 65 °C, water, thermodynamic from solid, solvent: Water, read-out: Solubility at 65° C.
> 200 mg/mL: DMA, 22 °C, organic solvent or mixture, thermodynamic from solid, solvent: DMA, read-out: Solubility at 22° C. | NMP, 22 °C, organic solvent or mixture, thermodynamic from solid, solvent: NMP, read-out: Solubility at 22° C.
